Results as given in patent US20040121965A1, “Method of treating resistant tumors” (Wyeth Holdings Corporation, priority 2002, published 2004).
Like-named read-outs stand apart in the source and are kept apart here.

Assays:
S1-M1-3.2 (MXR) = assay: Cell survival assay, S1-M1-3.2 (MXR); format: cell-based, human; details: for IC50: Homo sapiens, S1-M1-3.2, MXR over-expression, Table 5, read-out: S1-M1-3.2 (MXR) IC50, nM (N); for RR, relative resistance: IC50 S1-M1-3.2 / IC50 S1
Source text: (§1) Cells lines with previously known mechanisms of resistance. […] Res. 8: 207-218,1996); KB-3-1 (parental derived from an epidermoid carcinoma), KB-8.5, KB-V1 (Akiyama S-I, Fojo A, Hanover J A, Pastan I, Gottesman M M. Isolation and genetic characterization of human KB cell lines resistant to multiple drugs. Somatic Cell Mol. Gen., 11: 117-126,1985; Shen D-W, Cardarelli C, Hwang J, Cornwell M, Richert N, Ishii S, Pastan I, Gottesman MM. […] J. Biol. Chem., 261: 7762-7770, 1986); and HL-60 (parental derived from human leukemia) and HL60/AR (McGrath T., Center M. S. Adriamycin resistance in HL60 cells in the absence of detectable P-glycoprotein. Biochem. Res. Commun., 145:1171-1176,1987); A549 and A549.EpoB40 (He L., Yang C.-P.H., Horwitz S. B. Mutations in p-tubulin map to domains involved in regulation of microtubule stability in epothilone-resistant cell lines. Molecular Cancer Therapeutics. 1: 3-10, 2001). HCT-15 human colon carcinoma and DLD-1 human colon carcinoma are obtained from American Tissue Culture Collection. The MX-1W carcinoma is a Wyeth variant orginally obtained as MX-1 breast carcinoma from the National Cancer Institute. Cell lines selected for resistance to Representative Example 129. KB-3-1 cells are selected for resistance to Example 129 by chronically exposing cells to increasing concentrations of Example 129.
(§2) 2.2. Cell Survival Assay: Standard Pharmacological Test Procedure. The concentration of candidate inhibitor required to inhibit 50% of cell growth (IC50) is done according to previously reported methods. […] Compounds are serially diluted into media as 2× stocks and 100 μl added to cells in duplicate. Compounds are incubated with cells for 3 days. At the end of the incubation period the sulforhodamine B (SRB) assay, which measures protein content as an assessment of cell survival, is performed as described previously (Skehan P, Storeng R, Scudiero D, Monks A, McMahon J, Vistica D, Warren J T, Bokesch H, Kenney S, Boyd MR. New calorimetric cytotoxicity assay for anticancer-drug screening. J Natl Cancer Inst 1990 Jul 4;82(13):1107-12) with some modification as follows. For KB-3-1 cells with 20% FCS, media is gently decanted and replaced with 200 μl of serum-free media mixed with cold 50% TCA for a final concentration of 10% TCA. The plates are incubated for 1 hr at 4° C., followed by washing 5 times in cold distilled water, then air dried overnight. The fixed cells are stained for 10 min with 80 μl of 0.04% SRB solution prepared in 1% glacial acetic acid. Stain is discarded and plates washed 5 times in 1% glacial acetic acid, then air-dried until completely dry. Stained cell product is dissolved in 150 μl of 10 mM Trizma Base and placed on a shaker for 20 minutes until fully dissolved. Absorbance is read on a Victor V multi-label plate reader (Perkin Elmer, Gaithersburg, Md.).
(§3) J. Cell Science,113: 2011-2021, 2000). It was unknown whether the hemiasterlin family of peptides interact with these drug pumps.

S1 = assay: Cell survival assay (SRB), S1; format: cell-based; details: Homo sapiens; S1 parental; Table 5; read-out: S1 IC50, nM (N)
Source text: as §1, §2

HL60 = assay: Cell survival assay (MTS), HL60; format: cell-based; details: Homo sapiens, HL-60; HL60 parental; Table 5; read-out: HL60 IC50, nM (N)
KB-HTI-4.0 = assay: Cell survival assay, KB-3-1 line made resistant to Example 129 (KB-HTI-4.0); format: cell-based, human; details: for IC50: Homo sapiens, KB-3-1 line made resistant to Example 129, Table 8, read-out: KB-HTI-4.0 IC50
Source text: as §1, §2
Cells are selected for resistance to Example 129 to understand the frequency and mechanistic basis of resistance.

KB-3-1 = assay: Cell survival assay (SRB), KB-3-1; format: cell-based, human; details: Homo sapiens
Outline: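 SRB protein stain as survival read-out; IC50 = conc. giving 50% growth inhibition. Compound serially diluted, duplicate wells, 3 d exposure; TCA fixation (10% final, 1 h, 4 °C), 0.04% SRB/1% acetic acid 10 min, solubilised in 10 mM Trizma Base, A read.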

HL60/AR (MRP1) = assay: Cell survival assay, HL60/AR (MRP1); details: for IC50: Homo sapiens, HL-60/AR, read-out: HL60/AR (MRP1) IC50, nM (N); for RR, relative resistance: IC50 HL60/AR / IC50 HL60
Source text: as §1, §2, §3

KB-V1 (MDR1++) = assay: Cell survival assay (SRB), KB-V1 (MDR1++); details: for IC50: Homo sapiens; for RR, relative resistance: IC50 KB-V1 / IC50 KB-3-1
KB-8-5 (MDR1+) = assay: Cell survival assay (SRB), KB-8-5 (MDR1+); details: for IC50: Homo sapiens; for RR, relative resistance: IC50 KB-8-5 / IC50 KB-3-1; for resistance of KB-8-5 cells: KB-8-5 (KB-85) vs KB-3-1, in vitro
A549.EpoB40 = format: cell-based; details: vs A549; below 1 = sensitive
Source text: as §1
as §2, with “Stained cell product is dissolved in 150 μl of 10 mM Trizma Base and placed on a shaker for 20 minutes until fully dissolved.” left out

tumor cell lines = assay: cells; format: cell-based; details: HL60/AR (MRP1) or S1-M1-3.2 (MXR)
Source text: as §1, §2

KB-PTX-15+099 = assay: Cell survival assay, KB-PTX-15+099 (paclitaxel-resistant, non-MDR); format: cell-based, human
MX-1W tumor = assay: Growth of tumors in nude mice, MX-1W xenograft; format: in vivo; details: staged MX-1W xenograft; at MTD; days 11-15
Source text: 2.4. Growth of Tumors in Nude Mice.

[1] = test system: Human Melanoma Carcinoma Lox; details: staged LOX xenograft; at MTD ('<': MTD not achieved); days 11-15
[2] = KB-3-1 parental, Table 3, read-out: KB-3-1 IC50, nM (N)
[3] = KB-3-1 parental, Table 8, read-out: KB-3-1 IC50
[4] = read-out: KB-V1 (MDR1++) IC50, nM (N)
[5] = MDR1, read-out: KB-8-5 (MDR1+) IC50, nM (N)

SMILES	IC50 (S1-M1-3.2 (MXR)) [nM]	RR, relative resistance (S1-M1-3.2 (MXR))	IC50 (S1) [nM]	IC50 (HL60) [nM]	IC50 (KB-HTI-4.0) [nM]	(RR) relative resistance vs. parental cells (KB-HTI-4.0; KB-HTI-4.0 vs KB-3-1)	IC50 (KB-3-1; [2]) [nM]	IC50 (KB-3-1; [3]) [nM]	IC50 (HL60/AR (MRP1)) [nM]	RR, relative resistance (HL60/AR (MRP1))	IC50 (KB-V1 (MDR1++); [4]) [nM]	RR, relative resistance (KB-V1 (MDR1++); Table 3)	IC50 (KB-8-5 (MDR1+); [5]) [nM]	RR, relative resistance (KB-8-5 (MDR1+); Table 3)	resistance of KB-8-5 cells (KB-8-5 (MDR1+)) [fold]	further results
COc1cccc2c1C(=O)c1c(O)c3c(c(O)c1C2=O)C[C@@](O)(C(=O)CO)C[C@@H]3O[C@H]1C[C@H](N)[C@H](O)[C@H](C)O1 [adriamycin]	11500 ± 367	52	221 ± 113	24.2 ± 6.8	552 ± 111	(16)	43.3 ± 32	33.9 ± 21.2	> 3000	>124	11500 ± 9670	265	658 ± 483	15	15	–
O=C1c2c(O)ccc(O)c2C(=O)c2c(NCCNCCO)ccc(NCCNCCO)c21 [mitoxantrone]	16600	535	31	5.9	430 ± 159	(43)	10.3 ± 6.9	10 ± 6.5	190	32.4	> 3000	>291	19.1	1.9	–	–
CC[C@]1(O)C[C@@H]2CN(CCc3c([nH]c4ccccc34)[C@@](C(=O)OC)(c3cc4c(cc3OC)N(C)[C@H]3[C@@](O)(C(=O)OC)[C@H](OC(C)=O)[C@]5(CC)C=CCN6CC[C@]43[C@@H]65)C2)C1 [vinblastine]	12.7	1.9	6.5	0.5	6.19 ± 1.26	–	–	–	2	3.7	–	1848	–	37	37	resistance of A549.EpoB40 cells (A549.EpoB40): 0.2 fold; resistance detected in cells over-expressing MRP1 or MXR (tumor cell lines): no resistance; (RR) relative resistance vs. parental cells (KB-HTI-4.0): (9); resistance of KB-3-1-derived cell lines selected with Example 129 (KB-HTI-4.0; vs KB-3-1): 9 fold; IC50 (KB-PTX-15+099; Homo sapiens, KB-PTX-15+099, Table 6, read-out: KB-PTX-15+099 IC50): 0.192 ± 0.022 nM; Average Relative Resistance (RR) (KB-PTX-15+099; IC50 KB-PTX-15+099 / IC50 KB-3-1, less than 1 = increased sensitivity): (0.27); increased sensitivity of KB-PTX-15+099 cells (KB-PTX-15+099; vs KB-3-1): 3.7 fold; IC50 (KB-3-1; KB 3-1, 72 h, amount of drug needed to kill 50% of cells after three days continuous exposure, Table 11, read-out: IC50 in parental cell line KB-3-1): 0.8 nM; IC50 (KB-3-1; KB 3-1, KB-3-1, Table 6, read-out: KB-3-1 IC50): 0.703 ± 0.097 nM; IC50 (KB-3-1; KB 3-1, KB-3-1 parental, Table 3, read-out: KB-3-1 IC50, nM (N)): 0.79 ± 0.5 nM; IC50 (KB-3-1; KB 3-1, KB-3-1 parental, Table 8, read-out: KB-3-1 IC50): 0.73 ± 0.03 nM; Activity in nude mice animal model (% T/C @ MTD on days 11-15) MX-1W (MX-1W tumor): 64%; IC50 (KB-V1 (MDR1++); read-out: KB-V1 (MDR1++) IC50, nM (N), KB-V1, high MDR1 expression, Table 3): 1460 ± 1020 nM; IC50 (KB-8-5 (MDR1+); MDR1, read-out: KB-8-5 (MDR1+) IC50, nM (N), KB-8-5, moderate MDR1 expression, Table 3): 29.2 ± 22 nM; Activity in nude mice animal model (% T/C @ MTD on days 11-15) LOX [1]: 9%
